In test [1] the test system is AAMU-Ab. Description: Competitive antigen ELISA, cross-reactivity of AAMU-Ab. To be noted: for % Cross-Reaction AAMU-Ab: competitive antigen ELISA, 0 = absence of inhibition or inhibition no higher than 40% at highest concentration tested (5×10^−3 M). The format is binding, rabbit. The method, then:
(§1) Buffers and water without additives are filtered through millipore filters and kept for 1 week. BSA, antibodies, Tween™ 20 and horse radish peroxidase conjugates are added to these buffers and water just prior to use. Urine samples are usually collected 4 hours after drinking a cup of coffee (instant or brewed with approximately 100 mg of caffeine per cup) and stored at −80° C. The urine samples are diluted 10 times with sodium phosphate buffer (620 mosm, pH 7.50) and are subsequently diluted with water to give concentrations of AAMU and 1X no higher than 3×10^−6 M in the ELISA. All the pipettings are done with an eight-channel pipette, except those of the antibody and sample solutions. Starting with the last well, 100 μL of a carbonate buffer (100 mM, pH 9.6) containing 2.5 μg mL-^1 antibodies are added to each well. After 90 min. at room temperature, the wells are washed three times with […] of TPB: isotonic sodium phosphate buffer (310 mosm, pH 7.50) containing 0.05% Tween™ 20.
(§2) After the initial wash, unoccupied sites are blocked by incubation for 90 min. at room temperature with 100 μL TBP containing 3% BSA. The wells are washed four times with 100 μL TPB. The washing is followed by additions of 50 μL of 12 mg mL^−1 AAMU-HRP or 1X-HRP conjugate in 2×TPB containing 2% BSA, and 50 μL of either water, standard (13 standards; AAMU or 1X, 2×10^−4 to 2×10^−8 M) or sample in duplicate. The microplate is gently shaken with an orbital shaker at room temperature for 3-4 hours. The wells are washed three times with 100 μL TPB containing 1% BSA and three times with water containing 0.05% Tween™ 20. To the washed plate is added 150 μL of a substrate buffer composed of citric acid (25 mM) and sodium phosphate dibasic buffer (50 mM, pH 5.0) containing 0.06% hydrogen peroxide and 0.04% o-phenylenediamine hydrochloride.
(§3) Buffers and water without additives were filtered through millipore filters and kept for 1 week. BSA, antibodies, Tween™ 20 and horse radish peroxidase conjugates were added to these buffers and water just prior to use. Urine samples were usually collected 4 hours after drinking a cup of coffee (instant or brewed with approximately 100 mg of caffeine per cup) and stored at −80° C. They were diluted 10 times with sodium phosphate buffer (620 mosm, pH 7.50) and were subsequently diluted with water to give concentrations of AAMU and 1X no higher than 3×10^−6 M in the ELISA. All the pipettings were done with an eight-channel pipette, except those of the antibody and sample solutions. Starting with the last well, 100 μL of a carbonate buffer (100 mM, pH 9.6) containing 2.5 μg mL-^1 antibodies was pipetted. After 90 min. at room temperature, the wells were washed three times with 100 μL of TPB: isotonic sodium phosphate buffer (310 mosm, pH 7.50) containing 0.05% Tween™ 20.
(§4) After the initial wash, unoccupied sites were blocked by incubation for 90 min. at room temperature with 100 μL TBP containing 3% BSA. The wells were washed four times with 100 μL TPB. This was followed by additions of 50 μL of 12 mg mL^−1 AAMU-HRP or 1X-HRP conjugate in 2×TPB containing 2% BSA, and 50 μL of either water, standard (13 standards; AAMU or 1X, 2×10^−4 to 2×10^−8 M) or sample in duplicate. The microplate was gently shaken with an orbital shaker at room temperature for 3-4 hours. The wells were washed three times with 100 μL with TPB containing 1% BSA and three times with water containing 0.05% Tween™ 20. To the washed plate was added 150 μL of a substrate buffer composed of citric acid (25 mM) and sodium phosphate dibasic buffer (50 mM, pH 5.0) containing 0.06% hydrogen peroxide and 0.04% o-phenylenediamine hydrochloride. After 20 min. at room temperature with shaking, the reaction was stopped with 50 μL of 2.5 N HCl.
(§5) The cross reactivities of AAMU-Ab and 1X-Ab were tested using a wide variety of caffeine metabolites and structural analogs (Table 2 below).
A general note: In an ELISA, binding on a coated surface is turned into a signal by an enzyme label.

In test [2] the test system is 1X-Ab. Kind of test: Competitive antigen ELISA, cross-reactivity of 1X-Ab. To be noted: for % Cross-Reaction 1X-Ab: competitive antigen ELISA, 0 = absence of inhibition or inhibition no higher than 40% at highest concentration tested (5×10^−3 M). The format is binding, rabbit. As for the experimental part:
as §1, §2, §3, §4, §5

SMILES strings stand for the structures. Marks after values point to notes of the source that are not given here.

For the compound `Cn1c(=O)c2[nH]cnc2n(C)c1=O` [1,3-Dimethyl Xanthine (Theophylline), 1,3-Dimethyl Xanthine], in test [1], the “% Cross-Reaction AAMU-Ab” value is given as 0%. Further, the “% Cross-Reaction 1X-Ab” value in test [2] is recorded as 0.2%.

`Nc1nc2nc[nH]c2c(=O)[nH]1` [Guanine]: the “% Cross-Reaction AAMU-Ab” value in test [1] turned out to be 0%. In addition, in test [2], the “% Cross-Reaction 1X-Ab” value came to 0%.

Regarding `Cn1c(=O)[nH]c2[nH]c(=O)n(C)c2c1=O` [1,7-Dimethyluric acid], the “% Cross-Reaction AAMU-Ab” value in test [1] is on record as 0%. Moreover, the “% Cross-Reaction 1X-Ab” value in test [2] came out at 0%.

Turning to `Cn1cnc2[nH]c(=O)[nH]c(=O)c21` [7-Methyl Xanthine], in test [1], the “% Cross-Reaction AAMU-Ab” value was found to be 0%. Besides, in test [2], the “% Cross-Reaction 1X-Ab” value is listed as 0%.

On to `CC(=O)Nc1c(N)n(C)c(=O)[nH]c1=O` [5-Acetamino-6-amino-1-methyluracil], for which, in test [1] (AAMU-Ab, AAMU-HRP conjugate, read-out: concentration required for 50% inhibition in the competitive antigen ELISA), the IC50 was determined as 1.5 µM. In addition, in test [1], the “% Cross-Reaction AAMU-Ab” value is recorded as 100%. In test [2], the “% Cross-Reaction 1X-Ab” value stood at 0%.

As to `O=c1cc[nH]c(=O)[nH]1` [Uracil], the “% Cross-Reaction AAMU-Ab” value in test [1] is listed as 0%. Further, in test [2], the “% Cross-Reaction 1X-Ab” value is recorded as 0%.

With `O=c1[nH]c(=O)c2[nH]cnc2[nH]1` [Xanthine], in test [1], the “% Cross-Reaction AAMU-Ab” value is on record as 0^a %. Moreover, the “% Cross-Reaction 1X-Ab” value in test [2] worked out at 0%.

Take `Cn1c(=O)[nH]c2[nH]c(=O)[nH]c2c1=O` [1-Methyluric acid]: the “% Cross-Reaction AAMU-Ab” value in test [1] worked out at 0%. In addition, the “% Cross-Reaction 1X-Ab” value in test [2] is 11%.

On to `Cn1cnc2c1c(=O)[nH]c(=O)n2C` [3,7-Dimethyl Xanthine (Theobromine), 3,7-Dimethyl Xanthine], for which the “% Cross-Reaction AAMU-Ab” value in test [1] was found to be 0%. In test [2], the “% Cross-Reaction 1X-Ab” value is recorded as 0%.

`Cn1c(=O)[nH]c2ncn(C)c2c1=O` [1,7-Dimethyl Xanthine (Paraxanthine), 1,7-Dimethyl Xanthine]: the “% Cross-Reaction AAMU-Ab” value in test [1] is listed as 0%. Also, in test [2], the “% Cross-Reaction 1X-Ab” value turned out to be 0.5%.

For `CC(=O)Nc1c(N)[nH]c(=O)[nH]c1=O` [5-Acetamino-6-amino-uracil], the “% Cross-Reaction AAMU-Ab” value in test [1] is reported as 0.6%. Besides, in test [2], the “% Cross-Reaction 1X-Ab” value was 0%.

As for `O=c1[nH]c(=O)c2[nH]c(=O)[nH]c2[nH]1` [Uric acid], in test [1], the “% Cross-Reaction AAMU-Ab” value worked out at 0%. For the same compound, the “% Cross-Reaction 1X-Ab” value in test [2] stood at 0%.

As to `Cn1c(=O)c2c(ncn2C)n(C)c1=O` [1,3,7-Trimethyl Xanthine (Caffeine), 1,3,7-Trimethyl Xanthine], the “% Cross-Reaction AAMU-Ab” value in test [1] was found to be 0%. Further, the “% Cross-Reaction 1X-Ab” value in test [2] is given as 0%.

As for `Cc1nc2[nH]c(=O)[nH]c(=O)c2[nH]1` [8-Methyl Xanthine], the “% Cross-Reaction AAMU-Ab” value in test [1] is 0%. The “% Cross-Reaction 1X-Ab” value in test [2] turned out to be 0%.

Turning to `Cn1c(=O)[nH]c2nc[nH]c2c1=O` [1-Methyl Xanthine (1X), 1-Methyl Xanthine], the “% Cross-Reaction AAMU-Ab” value in test [1] came out at 0%. The IC50 in test [2] (1X-Ab, 1X-HRP conjugate, read-out: concentration required for 50% inhibition in the competitive antigen ELISA) stood at 10 µM. Also, in test [2], the “% Cross-Reaction 1X-Ab” value was determined as 100%.

For `CC(=O)Nc1c(N)n(C)c(=O)n(C)c1=O` [5-Acetamino-6-amino-1,3-dimethyluracil], the “% Cross-Reaction AAMU-Ab” value in test [1] was found to be 0%. The “% Cross-Reaction 1X-Ab” value in test [2] is 0%.

As for `Cn1c(=O)[nH]c(=O)c2[nH]cnc21` [3-Methyl Xanthine], the “% Cross-Reaction AAMU-Ab” value in test [1] came out at 0%. Besides, in test [2], the “% Cross-Reaction 1X-Ab” value was 0%.

Regarding `O=c1[nH]cnc2nc[nH]c12` [Hypoxanthine], the “% Cross-Reaction AAMU-Ab” value in test [1] is listed as 0%. Moreover, the “% Cross-Reaction 1X-Ab” value in test [2] was 0%.

(Values after patent US20030103901A1, “ELISA kit for the determination of CYP2C19 metabolic phenotypes and uses thereof” (McGill University, priority 2001, published 2003).)
